Test results as given in ChEMBL document CHEMBL1144638, “Hydantoins, triazolones, and imidazolones as selective non-hydroxamate inhibitors of tumor necrosis factor-alpha converting enzyme (TACE)” (Bioorg Med Chem Lett, 2007).

Assays:
[1] = target: 72 kDa type IV collagenase (Homo sapiens, UniProt P08253); test: Binding affinity to MMP2
[2] = target: Macrophage metalloelastase (Homo sapiens, UniProt P39900); test: Binding affinity to MMP12
[3] = target: T1, Interstitial collagenase (Homo sapiens, UniProt P03956); test: Binding affinity to MMP1
T1 sequence (P03956 whole entry): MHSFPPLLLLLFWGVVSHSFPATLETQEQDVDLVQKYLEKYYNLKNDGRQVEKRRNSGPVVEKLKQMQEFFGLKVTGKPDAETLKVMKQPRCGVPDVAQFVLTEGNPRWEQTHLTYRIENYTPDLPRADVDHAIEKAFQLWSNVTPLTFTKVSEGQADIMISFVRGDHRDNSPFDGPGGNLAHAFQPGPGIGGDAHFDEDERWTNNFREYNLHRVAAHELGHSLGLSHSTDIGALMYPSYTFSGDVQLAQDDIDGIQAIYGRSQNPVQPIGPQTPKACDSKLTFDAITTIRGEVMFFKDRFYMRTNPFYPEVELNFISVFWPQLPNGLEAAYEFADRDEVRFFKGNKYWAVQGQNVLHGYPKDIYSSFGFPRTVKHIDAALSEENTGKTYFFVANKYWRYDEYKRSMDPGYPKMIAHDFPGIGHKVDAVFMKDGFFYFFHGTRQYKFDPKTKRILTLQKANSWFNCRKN

[4] = target: Matrix metalloproteinase-9 (Homo sapiens, UniProt P14780); test: Binding affinity to MMP9
[5] = target: Stromelysin-1 (Homo sapiens, UniProt P08254); test: Binding affinity to MMP3
[6] = target: T2, Matrilysin (Homo sapiens, UniProt P09237); test: Binding affinity to MMP7
T2 sequence (P09237 whole entry): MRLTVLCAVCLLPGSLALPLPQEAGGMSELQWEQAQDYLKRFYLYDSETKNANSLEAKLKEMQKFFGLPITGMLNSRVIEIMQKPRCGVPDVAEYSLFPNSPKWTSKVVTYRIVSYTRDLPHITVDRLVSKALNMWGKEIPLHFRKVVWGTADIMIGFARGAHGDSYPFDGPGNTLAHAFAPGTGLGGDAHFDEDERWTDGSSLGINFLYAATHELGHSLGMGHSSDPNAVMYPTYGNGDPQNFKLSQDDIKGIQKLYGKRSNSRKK

[7] = target: Collagenase 3 (Homo sapiens, UniProt P45452); test: Binding affinity to MMP13

72 kDa type IV collagenase, sequence (P08253 whole entry): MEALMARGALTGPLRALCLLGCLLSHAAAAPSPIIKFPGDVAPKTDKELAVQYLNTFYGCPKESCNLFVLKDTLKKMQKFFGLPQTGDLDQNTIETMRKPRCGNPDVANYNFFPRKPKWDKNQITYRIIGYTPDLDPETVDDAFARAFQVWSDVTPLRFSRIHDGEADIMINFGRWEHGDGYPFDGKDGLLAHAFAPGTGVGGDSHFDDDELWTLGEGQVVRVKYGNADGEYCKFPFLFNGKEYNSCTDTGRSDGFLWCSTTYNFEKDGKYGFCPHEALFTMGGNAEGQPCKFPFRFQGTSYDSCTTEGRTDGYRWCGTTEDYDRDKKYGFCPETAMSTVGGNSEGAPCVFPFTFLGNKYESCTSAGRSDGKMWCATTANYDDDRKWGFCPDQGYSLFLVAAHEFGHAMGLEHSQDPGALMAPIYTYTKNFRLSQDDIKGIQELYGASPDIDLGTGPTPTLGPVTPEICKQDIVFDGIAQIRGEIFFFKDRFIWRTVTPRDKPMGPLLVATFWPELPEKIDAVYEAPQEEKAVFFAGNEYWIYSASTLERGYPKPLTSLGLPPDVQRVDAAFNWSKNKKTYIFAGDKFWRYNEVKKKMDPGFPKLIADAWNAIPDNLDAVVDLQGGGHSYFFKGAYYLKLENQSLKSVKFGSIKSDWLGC
Matrix metalloproteinase-9, sequence (P14780 whole entry): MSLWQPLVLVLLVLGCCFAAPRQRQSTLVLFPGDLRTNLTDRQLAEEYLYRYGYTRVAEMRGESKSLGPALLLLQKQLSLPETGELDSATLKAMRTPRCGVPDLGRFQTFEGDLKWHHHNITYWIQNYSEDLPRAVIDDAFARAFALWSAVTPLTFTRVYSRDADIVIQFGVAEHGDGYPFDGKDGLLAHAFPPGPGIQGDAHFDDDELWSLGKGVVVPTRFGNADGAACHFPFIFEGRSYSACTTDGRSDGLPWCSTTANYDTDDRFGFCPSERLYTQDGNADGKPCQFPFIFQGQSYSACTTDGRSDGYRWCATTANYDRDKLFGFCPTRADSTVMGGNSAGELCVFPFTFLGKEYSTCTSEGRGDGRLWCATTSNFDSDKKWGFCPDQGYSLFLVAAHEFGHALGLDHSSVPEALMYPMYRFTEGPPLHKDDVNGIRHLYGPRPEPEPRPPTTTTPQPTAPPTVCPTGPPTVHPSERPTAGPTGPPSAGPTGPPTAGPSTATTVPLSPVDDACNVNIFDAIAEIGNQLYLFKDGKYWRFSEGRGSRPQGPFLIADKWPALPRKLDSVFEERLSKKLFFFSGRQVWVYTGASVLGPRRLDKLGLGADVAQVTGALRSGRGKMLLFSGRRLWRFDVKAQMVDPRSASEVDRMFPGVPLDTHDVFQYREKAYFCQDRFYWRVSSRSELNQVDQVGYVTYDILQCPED
Macrophage metalloelastase, sequence (P39900 whole entry): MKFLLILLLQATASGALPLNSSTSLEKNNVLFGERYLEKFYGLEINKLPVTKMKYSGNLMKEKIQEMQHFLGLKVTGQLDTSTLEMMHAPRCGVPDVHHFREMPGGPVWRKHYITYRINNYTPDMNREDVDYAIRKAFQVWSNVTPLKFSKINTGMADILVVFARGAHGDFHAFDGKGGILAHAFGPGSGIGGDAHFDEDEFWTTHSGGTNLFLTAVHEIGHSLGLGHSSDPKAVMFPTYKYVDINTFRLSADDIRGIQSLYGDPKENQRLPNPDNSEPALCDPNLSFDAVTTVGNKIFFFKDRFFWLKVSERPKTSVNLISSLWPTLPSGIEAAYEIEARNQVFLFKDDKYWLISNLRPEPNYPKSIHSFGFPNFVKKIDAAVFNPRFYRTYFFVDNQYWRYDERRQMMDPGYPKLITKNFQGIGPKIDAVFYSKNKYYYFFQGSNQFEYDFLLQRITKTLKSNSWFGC
Stromelysin-1, sequence (P08254 whole entry): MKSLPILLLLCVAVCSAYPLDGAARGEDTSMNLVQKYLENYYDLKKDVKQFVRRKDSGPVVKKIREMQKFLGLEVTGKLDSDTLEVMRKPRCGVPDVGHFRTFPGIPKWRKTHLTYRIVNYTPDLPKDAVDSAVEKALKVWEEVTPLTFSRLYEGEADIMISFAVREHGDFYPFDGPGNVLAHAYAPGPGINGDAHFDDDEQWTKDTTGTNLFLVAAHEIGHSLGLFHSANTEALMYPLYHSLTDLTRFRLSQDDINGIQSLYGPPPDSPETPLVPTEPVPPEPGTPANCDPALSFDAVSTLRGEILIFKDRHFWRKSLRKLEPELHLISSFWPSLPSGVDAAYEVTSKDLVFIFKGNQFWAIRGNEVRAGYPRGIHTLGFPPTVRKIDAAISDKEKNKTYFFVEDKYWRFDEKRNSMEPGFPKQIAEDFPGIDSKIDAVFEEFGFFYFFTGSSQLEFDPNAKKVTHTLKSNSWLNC

Ki [1] [µM]	Ki [2] [µM]	Ki [3] [µM]	Ki [4] [µM]	Ki [5] [µM]	Ki [6] [µM]	Ki [7] [µM]	SMILES
> 3.33	> 5.03	> 4.95	> 2.13	–	–	–	Cc1cc(COc2ccc(C(=O)NCc3n[nH]c(=O)[nH]3)cc2)c2ccccc2n1
2.47	4.12	–	–	0.567	1	> 5.03	Cc1cc(COc2ccc(S(=O)(=O)NCc3n[nH]c(=O)[nH]3)cc2)c2ccccc2n1
> 3.33	3.61	–	–	> 4.5	> 6.37	4.31	Cc1cc(COc2ccc(C(=O)Nc3ccccc3Cc3n[nH]c(=O)[nH]3)cc2)c2ccccc2n1
> 3.33	> 6.02	–	–	> 4.5	> 6.37	> 5.03	Cc1cc(COc2ccc(C(=O)Nc3ccccc3Cc3c[nH]c(=O)[nH]3)cc2)c2ccccc2n1
> 3.33	> 6.02	–	–	> 4.5	> 6.37	4.31	Cc1cc(COc2ccc(C(=O)Nc3ccccc3C(=O)c3c[nH]c(=O)[nH]3)cc2)c2ccccc2n1
> 3.33	> 5.03	> 4.95	> 2.13	–	–	–	Cc1cc(COc2ccc(C(=O)NCC3(C)NC(=O)NC3=O)cc2)c2ccccc2n1 (stereo unspecified)
> 3.33	0.782	–	–	> 4.5	> 6.37	> 5.03	Cc1cc(COc2ccc(C(=O)Nc3ccccc3C3NC(=O)NC3=O)cc2)c2ccccc2n1 (stereo unspecified)
> 3.33	> 5.03	> 4.95	> 2.13	–	–	–	Cc1cc(COc2ccc(S(=O)(=O)NCC3(C)NC(=O)NC3=O)cc2)c2ccccc2n1 (stereo unspecified)
> 3.33	> 5.03	> 4.95	> 2.13	–	–	–	Cc1cc(COc2ccc(C(=O)N[C@H]3CN(C(=O)OC(C)(C)C)C[C@@H]3c3n[nH]c(=O)[nH]3)cc2)c2ccccc2n1
